Counter-ions that a name gives are not always drawn. One block for each molecule: values may come before it. Activity calls are given as the source filed them. The calls are words filed in the database; no cut-off is given here.
What was measured:
[1] = tested on: K562; experiment: Cytotoxicity against human K562 cells assessed as inhibition of cell proliferation after 48 hrs by MTT assay; type: functional, cell-based; details: K562, 48 h
[2] = tested on: HL-60; experiment: Cytotoxicity against human HL60 cells assessed as inhibition of cell proliferation after 48 hrs by MTT assay; type: functional, cell-based; details: HL-60, 48 h
[3] = tested on: HEK293; experiment: Cytotoxicity against human HEK293 cells assessed as inhibition of cell proliferation after 48 hrs by MTT assay; type: cell-based; details: HEK293, 48 h
[4] = tested on: Jurkat; experiment: Induction of apoptosis in human Jurkat cells assessed as Notch1 degradation at 2 to 4 uM after 24 hrs by Western blot analysis; type: functional, cell-based; details: dose microM 2-4, time 24.0 hrs
[5] = tested on: NB-4; experiment: Cytotoxicity against human NB4 cells assessed as inhibition of cell proliferation after 48 hrs by MTT assay; type: functional, cell-based; details: NB-4, 48 h
[6] = tested on: CA46; experiment: Cytotoxicity against human CA46 cells assessed as inhibition of cell proliferation after 48 hrs by MTT assay; type: functional, cell-based; details: CA46, 48 h
[7] = tested on: NALM-6; experiment: Cytotoxicity against human NALM6 cells assessed as inhibition of cell proliferation after 48 hrs by MTT assay; type: functional, cell-based; details: NALM-6, 48 h
[8] = tested on: MOLT-4; experiment: Cytotoxicity against human MOLT4 cells assessed as inhibition of cell proliferation after 48 hrs by MTT assay; type: functional, cell-based; details: MOLT-4, 48 h
[9] = tested on: Jurkat; experiment: Cytotoxicity against human Jurkat cells assessed as inhibition of cell proliferation after 48 hrs by MTT assay; type: functional, cell-based
[10] = tested on: MOLT-4; experiment: Cell cycle arrest in human MOLT-4 cells assessed as increase in cell population at G0/G1 phase at 2 to 4 uM after 24 hrs by propidium iodide/RNase staining based flow cytometric analysis; type: functional; details: dose microM 2-4, time 24.0 hrs
[11] = tested on: Jurkat; experiment: Cell cycle arrest in human Jurkat cells assessed as increase in cell population at G0/G1 phase at 2 to 4 uM after 24 hrs by propidium iodide/RNase staining based flow cytometric analysis; type: functional; details: dose microM 2-4, time 24.0 hrs
[12] = tested on: MOLT-4; experiment: Induction of apoptosis in human MOLT-4 cells assessed as Notch1 degradation at 2 to 4 uM after 24 hrs by Western blot analysis; type: functional, cell-based; details: dose microM 2-4, time 24.0 hrs
[13] = tested on: MOLT-4; experiment: Cell cycle arrest in human MOLT-4 cells assessed as decrease in cell population at S phase at 2 to 4 uM after 24 hrs by propidium iodide/RNase staining based flow cytometric analysis; type: functional; details: dose microM 2-4, time 24.0 hrs
[14] = tested on: Jurkat; experiment: Cell cycle arrest in human Jurkat cells assessed as decrease in cell population at S phase at 2 to 4 uM after 24 hrs by propidium iodide/RNase staining based flow cytometric analysis; type: functional; details: dose microM 2-4, time 24.0 hrs
[15] = tested on: MOLT-4; experiment: Induction of apoptosis in human MOLT-4 cells assessed as total apoptotic cells at 2 uM measured after 24 hrs by Annexin V-APC/7-AAD staining based flow cytometric analysis relative to control; type: functional
[16] = tested on: MOLT-4; experiment: Induction of apoptosis in human MOLT-4 cells assessed as total apoptotic cells at 4 uM measured after 24 hrs by Annexin V-APC/7-AAD staining based flow cytometric analysis relative to control; type: functional
[17] = tested on: Jurkat; experiment: Induction of apoptosis in human Jurkat cells assessed as total apoptotic cells at 2 uM measured after 24 hrs by Annexin V-APC/7-AAD staining based flow cytometric analysis relative to control; type: functional
[18] = tested on: Jurkat; experiment: Induction of apoptosis in human Jurkat cells assessed as total apoptotic cells at 4 uM measured after 24 hrs by Annexin V-APC/7-AAD staining based flow cytometric analysis relative to control; type: functional
[19] = tested on: HEK293; experiment: Induction of ROS generation in HEK293 cells at 1 uM incubated for 12 hrs by flow cytometric analysis relative to control; type: cell-based; details: human, hek293, 12 h
[20] = tested on: HEK293; experiment: Induction of ROS generation in HEK293 cells at 2 uM incubated for 12 hrs by flow cytometric analysis relative to control; type: cell-based; details: human, hek293, 12 h
[21] = tested on: MOLT-4; experiment: Induction of ROS generation in human MOLT-4 cells at 1 uM incubated for 12 hrs by flow cytometric analysis relative to control; type: functional
[22] = tested on: MOLT-4; experiment: Induction of ROS generation in human MOLT-4 cells at 2 uM incubated for 12 hrs by flow cytometric analysis relative to control; type: functional
[23] = tested on: Jurkat; experiment: Induction of ROS generation in human Jurkat cells at 1 uM incubated for 12 hrs by flow cytometric analysis relative to control; type: functional
[24] = tested on: Jurkat; experiment: Induction of ROS generation in human Jurkat cells at 2 uM incubated for 12 hrs by flow cytometric analysis relative to control; type: functional
[25] = tested on: MOLT-4; experiment: Induction of apoptosis in human MOLT-4 cells assessed as activation of PARP cleavage at 2 to 4 uM after 24 hrs by western blot analysis; type: functional, cell-based; details: dose microM 2-4, time 24.0 hrs
[26] = tested on: MOLT-4; experiment: Induction of apoptosis in human MOLT-4 cells assessed as caspase 9 activation at 2 to 4 uM incubated for 24 hrs by Western blot analysis; type: functional, cell-based; details: dose microM 2-4, time 24.0 hrs
[27] = tested on: Jurkat; experiment: Induction of apoptosis in human Jurkat cells assessed as caspase 9 activation at 2 to 4 uM incubated for 24 hrs by Western blot analysis; type: functional, cell-based; details: dose microM 2-4, time 24.0 hrs
[28] = tested on: MOLT-4; experiment: Induction of apoptosis in human MOLT-4 cells assessed as caspase 3 activation at 2 to 4 uM incubated for 24 hrs by Western blot analysis; type: functional, cell-based; details: dose microM 2-4, time 24.0 hrs
[29] = tested on: Jurkat; experiment: Induction of apoptosis in human Jurkat cells assessed as caspase 3 activation at 2 to 4 uM incubated for 24 hrs by Western blot analysis; type: functional, cell-based; details: dose microM 2-4, time 24.0 hrs
[30] = tested on: Jurkat; experiment: Induction of apoptosis in human Jurkat cells assessed as activation of PARP cleavage at 2 to 4 uM after 24 hrs by western blot analysis; type: functional, cell-based; details: dose microM 2-4, time 24.0 hrs
[31] = tested on: MOLT-4; experiment: Induction of apoptosis in human MOLT-4 cells assessed as increase in cleaved caspase-3 levels at 4 uM after 24 hrs by Alexafluor-488 goat anti-rabbitIgG staining based flow cytometric analysis relative to control; type: functional
[32] = tested on: Jurkat; experiment: Induction of apoptosis in human Jurkat cells assessed as increase in cleaved caspase-3 levels at 4 uM after 24 hrs by Alexafluor-488 goat anti-rabbitIgG staining based flow cytometric analysis relative to control; type: functional
[33] = tested on: MOLT-4; experiment: Induction of apoptosis in human MOLT-4 cells assessed as decrease in Bcl-2 protein expression at 2 to 4 uM after 24 hrs by Western blot analysis; type: functional, cell-based; details: dose microM 2-4, time 24.0 hrs
[34] = tested on: Jurkat; experiment: Induction of apoptosis in human Jurkat cells assessed as decrease in Bcl-2 protein expression at 2 to 4 uM after 24 hrs by Western blot analysis; type: functional, cell-based; details: dose microM 2-4, time 24.0 hrs
[35] = tested on: MOLT-4; experiment: Induction of apoptosis in human MOLT-4 cells assessed as c-myc degradation at 2 to 4 uM after 24 hrs by Western blot analysis; type: functional, cell-based; details: dose microM 2-4, time 24.0 hrs
[36] = tested on: Jurkat; experiment: Induction of apoptosis in human Jurkat cells assessed as c-myc degradation at 2 to 4 uM after 24 hrs by Western blot analysis; type: functional, cell-based; details: dose microM 2-4, time 24.0 hrs
[37] = Solubility in water by spectrophotometry; type: physicochemical

Compound: O=C1c2ccccc2C(=O)c2c(OCc3ccc(CBr)cc3)ccc(OCc3ccc(CBr)cc3)c21
- IC50 [1]: > 40000 nM
- IC50 [2]: > 40000 nM
- IC50 [3]: > 40000 nM

Compound: CCCCCCCC[P+](CCCCCCCC)(CCCCCCCC)Cc1ccc(COc2ccc(OCc3ccc(CSC(=N)N)cc3)c3c2C(=O)c2ccccc2C3=O)cc1
- IC50 [1]: 8040 nM
- IC50 [2]: 5160 nM
- IC50 [3]: 6660 nM

- Activity [19]: 2.78%
- Activity [20]: 62.23%
- solubility [37]: < 10 µg/mL
Compound: CCCCCCCC[N+](C)(CCCCCCCC)Cc1ccc(COc2ccc(OCc3ccc(CBr)cc3)c3c2C(=O)c2ccccc2C3=O)cc1.[Br-]
- Activity [4]: Dose-dependent effect
- IC50 [1]: 2310 nM
- IC50 [2]: 1400 nM
- IC50 [3]: 2440 nM
- IC50 [5]: 2400 nM
- IC50 [6]: 3510 nM
- IC50 [7]: 1240 nM
- IC50 [8]: 2610 nM
- IC50 [9]: 2800 nM
- Activity [10]: Active
- Activity [11]: Active
- Activity [12]: Dose-dependent effect
- Activity [13]: Active
- Activity [14]: Active
- Activity [15]: 22.76%
- Activity [16]: 39.67%
- Activity [17]: 25.57%
- Activity [18]: 48.96%
- Activity [21]: 22.2%
- Activity [22]: 73.97%
- Activity [23]: 18.63%
- Activity [24]: 38.1%
- Activity [25]: Active
- Activity [26]: Active
- Activity [27]: Active
- Activity [28]: Active
- Activity [29]: Active
- Activity [30]: Active
- Activity [31]: 33%
- Activity [32]: 43.4%
- Activity [33]: Dose-dependent effect
- Activity [34]: Dose-dependent effect
- Activity [35]: Dose-dependent effect
- Activity [36]: Dose-dependent effect

Compound: CCCCCCCC[N+](C)(CCCCCCCC)Cc1cc(O)c2c(c1)C(=O)c1cccc(O)c1C2=O
- IC50 [1]: 2780 nM
- IC50 [2]: 1110 nM
- IC50 [3]: 2200 nM

Compound: CCCCCCCC[P+](CCCCCCCC)(CCCCCCCC)Cc1ccc(COc2ccc(OCc3ccc(CBr)cc3)c3c2C(=O)c2ccccc2C3=O)cc1
- IC50 [1]: 1240 nM
- IC50 [2]: 900 nM
- IC50 [3]: 2170 nM

Compound: CCCCCCCC[N+](C)(CCCCCCCC)Cc1cc(O)c2c(c1)Cc1cccc(O)c1C2=O
- IC50 [1]: > 40000 nM
- IC50 [2]: > 40000 nM
- IC50 [3]: > 40000 nM

Compound: COc1cccc2c1C(=O)c1c(O)c3c(c(O)c1C2=O)C[C@@](O)(C(=O)CO)C[C@@H]3O[C@H]1C[C@H](N)[C@H](O)[C@H](C)O1 [DOXORUBICIN HYDROCHLORIDE]
- IC50 [1]: 630 nM
- IC50 [2]: 140 nM
- IC50 [3]: 370 nM

Compound: CCCCCCCC[N+](C)(CCCCCCCC)Cc1ccc(COc2ccc(OCc3ccc(C[N+](C)(CCCCCCCC)CCCCCCCC)cc3)c3c2C(=O)c2ccccc2C3=O)cc1
- IC50 [1]: 6780 nM
- IC50 [2]: 3490 nM
- IC50 [3]: 2990 nM

- solubility [37]: 59.3 µg/mL
Compound: Br.Br.N=C(N)SCc1ccc(COc2ccc(OCc3ccc(CSC(=N)N)cc3)c3c2C(=O)c2ccccc2C3=O)cc1
- IC50 [1]: 1810 nM
- IC50 [2]: 3350 nM
- IC50 [3]: 3190 nM

- solubility [37]: 28200 µg/mL
Compound: CCCCCCCC[N+](C)(CCCCCCCC)Cc1ccc(COc2ccc(OCc3ccc(C[N+](CCO)(CCO)CCO)cc3)c3c2C(=O)c2ccccc2C3=O)cc1.[Br-].[Br-]
- IC50 [1]: 10900 nM
- IC50 [2]: 7890 nM
- IC50 [3]: 9430 nM

From ChEMBL document CHEMBL4665635, “Design and synthesis of various quinizarin derivatives as potential anticancer agents in acute T lymphoblastic leukemia” (Bioorg Med Chem, 2019)
